From patent publication US20210161174A1, “FEED ADDITIVE FOR FARMED ANIMALS” (ADISSEO FRANCE S.A.S., priority 2018, published 2021)
Marks after values point to notes of the source that are not given here.

Experiments:
[1] = Example 2: broiler performance (body weight gain, feed intake, FCR), PQQ in diet, 0 to 42 days; format: in vivo, Broiler Chicken (Cobb 500)
Source text: Study Animals: • Animal: Broiler Chicken • Breed/Strain: Cobb 500 • Description: Day-of-hatch male chicks, sexed at hatchery • Sex: Male Total number of treatments: 4 Total number of replicates per treatment: 12 Total number of chicks per replicate: […] Initial age: day-of-hatch: 0 days-of-age Final age: 6 weeks: 42 days-of-age. Feed will be changed based on the days of each phase. • Starter feed will be weighed out and fed from day 0 to 7. • Grower feed will be weighed, issued and fed from day 8 until 21. • Finisher feed will be weighed, issued and fed from day 22 until 35. • Withdraw feed will be weighed, issued and fed from day 36 until 42. Performance: Feed consumption and pen weights are determined on days 0, 21, 35 and 42 to calculate average body weight (BW), body weight gain (BWG) and feed conversion ratio (FCR). Final bird weights: At the end of the grow-out period (Day 42), all birds are weighed, as well as any and all remaining feed. Randomized Complete Block Design with 4 treatments×12 replicates/treatment (40 birds/pen), randomized within blocks across the barn to minimize differences in environmental condition. The pen is the experimental unit. Dietary Treatments • Control (NC, negative control without PQQ) • 0.2 ppm PQQ • 0.5 ppm PQQ • 1 ppm PQQ The results are presented in tables 5 to 13 below for broilers fed diets from 0 to 42 days (d) of age. The values given are the mean and the P value.

wooden breast myopathies = test: Example 2: wooden breast assessment by expert panel at 42 d; format: in vivo, Broiler Chicken (Cobb 500); conditions: for wooden breast means per treatment (WB): score scale WB0-WB4
Procedure: Study Animals: • Animal: Broiler Chicken • Breed/Strain: Cobb 500 • Description: Day-of-hatch male chicks, sexed at hatchery • Sex: Male
Processing: On day […] (12) birds are selected from each pen for processing (at 12 reps/trt: 576 birds in total; 144 birds/trt)
Wooden breast assessment was determined by an expert panel according to 5 levels: WB0, WB1, WB2, WB3, WB4 from no WB to severe WB.
Dietary Treatments • Control (NC, negative control without PQQ) • 0.2 ppm PQQ • 0.5 ppm PQQ • 1 ppm PQQ
Wooden Breast Scores were: WB 0—normal breast; WB 1—mild hardening in the upper; WB 2—moderate hardening in the upper and/or lower part of the fillet; WB 3—severe hardening; WB 4—severe hardening with hemorrhagic lesions, increased volume, and presence of yellow fluid.
Higher is the score per WB 3 and 4 categories, greater is the default. Conversely, for categories WB0 to WB2, higher is the score, better is the quality.
Wooden breast scores were: WB0—normal breast; WB1—mild hardening in the upper; WB 2—moderate hardening in the upper and/or lower part of the fillet; WB 3—severe hardening; WB 4—severe hardening with hemorrhagic lesions, increased volume, and presence of yellow fluid.

For `O=C(O)c1cc(C(=O)O)c2c(n1)C(=O)C(=O)c1cc(C(=O)O)[nH]c1-2` [PQQ, pyrroloquinoline quinone], the “Cumulative feed intake of broilers” value ([1]; 0.2 ppm PQQ (T2), 1 t1o 42 d) was 5365 g, the “Cumulative feed intake of broilers” value ([1]; 0.2 ppm PQQ (T2), 1 to1 21 d) was 835 g and the “feed intake of broilers” value ([1]; 0.2 ppm PQQ (T2), 1 to 7 d) was 158 g. The “cumulative body weight gain of broilers” value ([1]; 0.2 ppm PQQ (T2), 1 to 21 d) was 624 g, the “cumulative feed conversion ratio of broilers” value ([1]; 0.2 ppm PQQ (T2), 1 to 21 d) was 1.355 and the “cumulative body weight gain of broilers” value ([1]; 0.2 ppm PQQ (T2), 1 to 35 d) was 2125 g. For the same compound, the “cumulative feed conversion ratio of broilers” value ([1]; 0.2 ppm PQQ (T2), 1 to 35 d) was 1.494, the “cumulative body weight gain of broilers” value ([1]; 0.2 ppm PQQ (T2), 1 to 42 d) was 3204 g and the “cumulative feed conversion ratio of broilers” value ([1]; 0.2 ppm PQQ (T2), 1 to 42 d) was 1.674. For the same compound, the “feed intake of broilers” value ([1]; 0.2 ppm PQQ (T2), 8 to 21 d) was 677 g, the “Cumulative feed intake of broilers” value ([1]; 0.2 ppm PQQ (T2), 11 to 35 d) was 3173 g and the “feed intake of broilers” value ([1]; 0.2 ppm PQQ (T2), 22 to 35 d) was 2346 g. The “feed intake of broilers” value ([1]; 0.2 ppm PQQ (T2), 36 to 42 d) was 2218 g, the “Cumulative feed intake of broilers” value ([1]; 0.5 ppm PQQ (T3), 1 t1o 42 d) was 5316 g and the “Cumulative feed intake of broilers” value ([1]; 0.5 ppm PQQ (T3), 1 to1 21 d) was 853 g. For the same compound, the “feed intake of broilers” value ([1]; 0.5 ppm PQQ (T3), 1 to 7 d) was 156 g, the “cumulative body weight gain of broilers” value ([1]; 0.5 ppm PQQ (T3), 1 to 21 d) was 608 g and the “cumulative feed conversion ratio of broilers” value ([1]; 0.5 ppm PQQ (T3), 1 to 21 d) was 1.402. For the same compound, the “cumulative body weight gain of broilers” value ([1]; 0.5 ppm PQQ (T3), 1 to 35 d) was 2123 g, the “cumulative feed conversion ratio of broilers” value ([1]; 0.5 ppm PQQ (T3), 1 to 35 d) was 1.526 and the “cumulative body weight gain of broilers” value ([1]; 0.5 ppm PQQ (T3), 1 to 42 d) was 3166 g. The “cumulative feed conversion ratio of broilers” value ([1]; 0.5 ppm PQQ (T3), 1 to 42 d) was 1.675, the “feed intake of broilers” value ([1]; 0.5 ppm PQQ (T3), 8 to 21 d) was 699 g and the “Cumulative feed intake of broilers” value ([1]; 0.5 ppm PQQ (T3), 11 to 35 d) was 3236 g. The “feed intake of broilers” value ([1]; 0.5 ppm PQQ (T3), 22 to 35 d) was 2390 g, the “feed intake of broilers” value ([1]; 0.5 ppm PQQ (T3), 36 to 42 d) was 2105 g and the “Cumulative feed intake of broilers” value ([1]; 1.0 ppm PQQ (T4), 1 t1o 42 d) was 5449 g. The “Cumulative feed intake of broilers” value ([1]; 1.0 ppm PQQ (T4), 1 to1 21 d) was 905 g, the “feed intake of broilers” value ([1]; 1.0 ppm PQQ (T4), 1 to 7 d) was 159 g and the “cumulative body weight gain of broilers” value ([1]; 1.0 ppm PQQ (T4), 1 to 21 d) was 630 g. The “cumulative feed conversion ratio of broilers” value ([1]; 1.0 ppm PQQ (T4), 1 to 21 d) was 1.429, the “cumulative body weight gain of broilers” value ([1]; 1.0 ppm PQQ (T4), 1 to 35 d) was 2178 g and the “cumulative feed conversion ratio of broilers” value ([1]; 1.0 ppm PQQ (T4), 1 to 35 d) was 1.540. For the same compound, the “cumulative body weight gain of broilers” value ([1]; 1.0 ppm PQQ (T4), 1 to 42 d) was 3188 g, the “cumulative feed conversion ratio of broilers” value ([1]; 1.0 ppm PQQ (T4), 1 to 42 d) was 1.708 and the “feed intake of broilers” value ([1]; 1.0 ppm PQQ (T4), 8 to 21 d) was 747 g. The “Cumulative feed intake of broilers” value ([1]; 1.0 ppm PQQ (T4), 11 to 35 d) was 3357 g, the “feed intake of broilers” value ([1]; 1.0 ppm PQQ (T4), 22 to 35 d) was 2459 g and the “feed intake of broilers” value ([1]; 1.0 ppm PQQ (T4), 36 to 42 d) was 2113 g. For the same compound, the “influence on the body weight” value ([1]; each concentration (0.2, 0.5, 1.0 ppm)) was “positive influence”, the “wooden breast myopathies occurrence, WB0” value (wooden breast myopathies; 0.2 ppm PQQ (T2)) was 0.83% and the “wooden breast myopathies occurrence, WB1” value (wooden breast myopathies; 0.2 ppm PQQ (T2)) was 2.78%. The “wooden breast myopathies occurrence, WB2” value (wooden breast myopathies; 0.2 ppm PQQ (T2)) was 20.00^a %, the “wooden breast myopathies occurrence, WB3” value (wooden breast myopathies; 0.2 ppm PQQ (T2)) was 49.16^a % and the “wooden breast myopathies occurrence, WB4” value (wooden breast myopathies; 0.2 ppm PQQ (T2)) was 27.22%. For the same compound, the “wooden breast myopathies scores, WB0” value (wooden breast myopathies; 0.2 ppm PQQ (T2)) was 0.08, the “wooden breast myopathies scores, WB1” value (wooden breast myopathies; 0.2 ppm PQQ (T2)) was 0.17 and the “wooden breast myopathies scores, WB2” value (wooden breast myopathies; 0.2 ppm PQQ (T2)) was 1.17^b. The “wooden breast myopathies scores, WB3” value (wooden breast myopathies; 0.2 ppm PQQ (T2)) was 2.92, the “wooden breast myopathies scores, WB4” value (wooden breast myopathies; 0.2 ppm PQQ (T2)) was 1.67 and the “wooden breast means per treatment (WB)” value (wooden breast myopathies; 0.2 ppm PQQ (T2)) was 2.92^a. The “wooden breast myopathies occurrence, WB0” value (wooden breast myopathies; 0.5 ppm PQQ (T3)) was 0.00%, the “wooden breast myopathies occurrence, WB1” value (wooden breast myopathies; 0.5 ppm PQQ (T3)) was 15.29% and the “wooden breast myopathies occurrence, WB2” value (wooden breast myopathies; 0.5 ppm PQQ (T3)) was 41.67^ab %. The “wooden breast myopathies occurrence, WB3” value (wooden breast myopathies; 0.5 ppm PQQ (T3)) was 30.56^ab %, the “wooden breast myopathies occurrence, WB4” value (wooden breast myopathies; 0.5 ppm PQQ (T3)) was 12.50% and the “wooden breast myopathies scores, WB0” value (wooden breast myopathies; 0.5 ppm PQQ (T3)) was 0.00. The “wooden breast myopathies scores, WB1” value (wooden breast myopathies; 0.5 ppm PQQ (T3)) was 0.92, the “wooden breast myopathies scores, WB2” value (wooden breast myopathies; 0.5 ppm PQQ (T3)) was 2.50^ab and the “wooden breast myopathies scores, WB3” value (wooden breast myopathies; 0.5 ppm PQQ (T3)) was 1.83. The “wooden breast myopathies scores, WB4” value (wooden breast myopathies; 0.5 ppm PQQ (T3)) was 0.75, the “wooden breast means per treatment (WB)” value (wooden breast myopathies; 0.5 ppm PQQ (T3)) was 2.36^b and the “change in proportion of WB2 breast fillets with supplementation” value (wooden breast myopathies; 1 ppm PQQ) was “+50%”. The “change in proportion of WB4 breast fillets with supplementation” value (wooden breast myopathies; 1 ppm PQQ) was −60%, the “wooden breast myopathies occurrence, WB0” value (wooden breast myopathies; 1.0 ppm PQQ (T4)) was 0.00% and the “wooden breast myopathies occurrence, WB1” value (wooden breast myopathies; 1.0 ppm PQQ (T4)) was 18.05%. The “wooden breast myopathies occurrence, WB2” value (wooden breast myopathies; 1.0 ppm PQQ (T4)) was 46.94^a %, the “wooden breast myopathies occurrence, WB3” value (wooden breast myopathies; 1.0 ppm PQQ (T4)) was 25.00^b % and the “wooden breast myopathies occurrence, WB4” value (wooden breast myopathies; 1.0 ppm PQQ (T4)) was 10.00%. For the same compound, the “wooden breast myopathies scores, WB0” value (wooden breast myopathies; 1.0 ppm PQQ (T4)) was 0.00, the “wooden breast myopathies scores, WB1” value (wooden breast myopathies; 1.0 ppm PQQ (T4)) was 1.08 and the “wooden breast myopathies scores, WB2” value (wooden breast myopathies; 1.0 ppm PQQ (T4)) was 2.75^a. The “wooden breast myopathies scores, WB3” value (wooden breast myopathies; 1.0 ppm PQQ (T4)) was 1.50, the “wooden breast myopathies scores, WB4” value (wooden breast myopathies; 1.0 ppm PQQ (T4)) was 0.58 and the “wooden breast means per treatment (WB)” value (wooden breast myopathies; 1.0 ppm PQQ (T4)) was 2.26^b. For the same compound, the “proportions of bad quality fillets (WB3 and WB4)” value (wooden breast myopathies; supplementation with PQQ) was “lower proportions” and the “proportions of good quality breast fillets (WB0 to WB2)” value (wooden breast myopathies; supplementation with PQQ) was “higher proportions”.
